Blank lines part the entries; values can stand above or below the molecule they belong to.
Biological target: Recombinant human factor D (Homo sapiens (Human), UniProt P00746)
Assay: Human Complement Factor D Assay: Method 1
Assay type: biochemical
Conditions: recombinant human factor D 10 nM; substrate Z-Lys-thiobenzyl; fluorescence readout; read-out: IC50 (μM), Factor D inhibition using Method 1
Description: Human Complement Factor D Assay: Method 1
Recombinant human factor D (expressed in E. coli and purified using standard methods) at 10 nM concentration is incubated with test compound at various concentrations for 1 hour at room temperature in 0.1 M Hepes buffer, pH 7.5, containing 1 mM MgCl2, 1 M NaCl and 0.05% CHAPS. A synthetic substrate Z-Lys-thiobenzyl and 2,4-dinitrobenzenesulfonyl-fluoresceine are added to final concentrations of 200 μM and 25 μM, respectively. The increase in fluorescence is recorded at excitation of 485 nm and emission at 535 nm in a microplate spectrofluorimeter. IC50 values are calculated from percentage of inhibition of complement factor D-activity as a function of test compound concentration.

Chain of Recombinant human factor D (P00746 26-253): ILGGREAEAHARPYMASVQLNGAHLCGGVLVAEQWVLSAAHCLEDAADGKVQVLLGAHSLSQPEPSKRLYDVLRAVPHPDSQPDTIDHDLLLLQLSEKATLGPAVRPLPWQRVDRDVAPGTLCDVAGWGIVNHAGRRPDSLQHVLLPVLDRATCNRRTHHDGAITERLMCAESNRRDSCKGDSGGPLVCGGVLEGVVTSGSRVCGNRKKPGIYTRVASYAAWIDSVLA

SMILES: CC(C)n1ccc(NC(=O)[C@@H]2C[C@H]3C[C@H]3N2C(=O)Cn2nc(C(N)=O)c3ccccc32)n1 [Example 4, 1-(2-((1R,3S,5R)-3-(1-isopropyl-1H-pyrazol-3-ylcarbamoyl)-2-azabicyclo[3.1.0]hexan-2-yl)-2-oxoethyl)-1H-indazole-3-carboxamide]
- IC50: 0.17 µM

SMILES: NC(=O)c1nn(CC(=O)N2[C@@H]3C[C@@H]3C[C@H]2C(=O)Nc2ccn(CC(F)(F)F)n2)c2ccccc12 [Example 1, 1-(2-oxo-2-((1R,3S,5R)-3-(1-(2,2,2-trifluoroethyl)-1H-pyrazol-3-ylcarbamoyl)-2-azabicyclo[3.1.0]hexan-2-yl)ethyl)-1H-indazole-3-carboxamide]
- IC50: 0.064 µM

SMILES: NC(=O)c1nn(CC(=O)N2[C@@H]3C[C@@H]3C[C@H]2C(=O)Nc2ccn(CC(F)(F)F)n2)c2cnccc12 [Example 2, 1-(2-oxo-2-((1R,3S,5R)-3-((1-(2,2,2-trifluoroethyl)-1H-pyrazol-3-yl)carbamoyl)-2-azabicyclo[3.1.0]hexan-2-yl)ethyl)-1H-pyrazolo[3,4-c]pyridine-3-carboxamide]
- IC50: 0.098 µM

The remaining lines, values ahead:

- IC50: 0.032 µM
SMILES: NC(=O)n1cc(NC(=O)N2[C@@H]3C[C@@H]3C[C@H]2C(=O)Nc2ccn(CC(F)(F)F)n2)c2ccccc21 [Example 5, (1R,3S,5R)—N2-(1-carbamoyl-1H-indol-3-yl)-N3-(1-(2,2,2-trifluoroethyl)-1H-pyrazol-3-yl)-2-azabicyclo[3.1.0]hexane-2,3-dicarboxamide]

- IC50: 0.083 µM
SMILES: CC(=O)c1nn(CC(=O)N2[C@@H]3C[C@@H]3C[C@H]2C(=O)Nc2ccn(CC(F)(F)F)n2)c2cnccc12 [Example 3, (1R,3S,5R)-2-(2-(3-acetyl-1H-pyrazolo[3,4-c]pyridin-1-yl)acetyl)-N-(1-(2,2,2-trifluoroethyl)-1 H-pyrazol-3-yl)-2-azabicyclo[3.1.0] hexane-3-carboxamide]

From patent US9550755B2, “Complement pathway modulators and uses thereof” (NOVARTIS AG, priority 2012, dated 2017)
